From US7767659B2, “Synthesis of naturally occurring ecteinascidins and related compounds” (Pharma Mar, S.A., priority 2002, dated 2010)
Read-outs that look alike come from different tables or passages of the source.

Legend:
A-549 = experiment: cells; settings: Homo sapiens, A549, 48 h
Procedure, shortened: (§1)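 Colorimetric SRB read (490 nm) on triplicate wells after 48 h at 37 °C, 5% CO2. Dose range 10 to 10^−8 μg/ml; 5×10^3 cells/well pre-attached 18 h.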

HT-29 = experiment: cells; settings: Homo sapiens, HT-29, 48 h
Procedure, shortened: as §1

LoVo = experiment: cells; settings: Homo sapiens, LoVo, 48 h
Procedure, shortened: as §1

DU-145 = experiment: Inhibition of cells growth by colorimetric assay (SRB); settings: Homo sapiens, DU-145, 48 h
Procedure, shortened: as §1

HMEC1 = experiment: as above; settings: for H-MEC-1 TGI / TGI H-MEC-1: SRB, 48 hours exposure; for GI50: Homo sapiens, HMEC-1, 48 h
Procedure, shortened: as §1

IGROV-1 = experiment: as above; settings: Homo sapiens, IGROV-1, 48 h
Procedure, shortened: as §1

IGROV-ET = experiment: as above; settings: Homo sapiens, 48 h
Procedure, shortened: as §1

K-562 = experiment: as above; settings: Homo sapiens, K562, 48 h
Procedure, shortened: as §1

LNCaP = experiment: as above; settings: Homo sapiens, LNCaP, 48 h
Procedure, shortened: as §1

LoVo-Dox = experiment: as above; settings: Homo sapiens, 48 h
Procedure, shortened: as §1

PANC-1 = experiment: as above; settings: Homo sapiens, PANC-1, 48 h
Procedure, shortened: as §1

SK-BR-3 = experiment: as above; settings: Homo sapiens, SK-BR-3, 48 h
Procedure, shortened: as §1

SK-MEL-28 = experiment: as above; settings: Homo sapiens, SK-MEL-28, 48 h
Procedure, shortened: as §1

SK-OV-3 = experiment: as above
Procedure, shortened: as §1

[1] = as above; settings: human
Procedure, shortened: as §1

COc1cc2c(cc1O)CCN[C@]21CS[C@@H]2c3c(OC(C)=O)c(C)c4c(c3[C@H](COC1=O)N1[C@@H]2[C@H]2c3c(cc(C)c(OC)c3O)C[C@@H]([C@@H]1O)N2C)OCO4 [Et-743, ecteinascidin 743, reference compound]
GI50 (A-549; read-out: A549 GI50): 0.00252 µM | CC50 (A-549; read-out: A549 LC50): 0.0121 µM | IC (TGI) (A-549; read-out: A549 TGI): 0.00551 µM | GI50 (HT-29; read-out: HT29 GI50): 0.00341 µM | CC50 (HT-29; read-out: HT29 LC50): 13.1 µM | IC (TGI) (HT-29; read-out: HT29 TGI): 0.0111 µM | GI50 (LoVo; read-out: LOVO GI50): 0.00156 µM | CC50 (LoVo; read-out: LOVO LC50): 0.0114 µM | IC (TGI) (LoVo; read-out: LOVO TGI): 0.00423 µM | GI50 (DU-145; read-out: DU145 GI50): 0.000618 µM | CC50 (DU-145; read-out: DU145 LC50): 4.33 µM | IC (TGI) (DU-145; read-out: DU145 TGI): 0.00129 µM | H-MEC-1 TGI (HMEC1): 6.88E−08 Molar | GI50 (HMEC1; read-out: H-MEC-1 GI50): 0.00903 µM | GI50 (IGROV-1; read-out: IGROV GI50): 0.000579 µM | CC50 (IGROV-1; read-out: IGROV LC50): 0.0103 µM | IC (TGI) (IGROV-1; read-out: IGROV TGI): 0.0026 µM | GI50 (IGROV-ET; read-out: IGROV-ET GI50): 0.00429 µM | CC50 (IGROV-ET; read-out: IGROV-ET LC50): 0.0186 µM | IC (TGI) (IGROV-ET; read-out: IGROV-ET TGI): 0.00786 µM | GI50 (K-562; read-out: K562 GI50): 0.000347 µM | CC50 (K-562; read-out: K562 LC50): 0.00106 µM | IC (TGI) (K-562; read-out: K562 TGI): 0.000605 µM | GI50 (LNCaP; read-out: LNCAP GI50): 0.00023 µM | CC50 (LNCaP; read-out: LNCAP LC50): 0.00122 µM | IC (TGI) (LNCaP; read-out: LNCAP TGI): 0.000529 µM | GI50 (LoVo-Dox; read-out: LOVO-DOX GI50): 0.0295 µM | IC (TGI) (LoVo-Dox; read-out: LOVO-DOX TGI): 0.11 µM | GI50 (PANC-1; read-out: PANC-1 GI50): 0.00159 µM | CC50 (PANC-1; read-out: PANC-1 LC50): 0.0399 µM | IC (TGI) (PANC-1; read-out: PANC-1 TGI): 0.00634 µM | GI50 (SK-BR-3; read-out: SK-BR3 GI50): 0.000479 µM | CC50 (SK-BR-3; read-out: SK-BR3 LC50): 0.00857 µM | IC (TGI) (SK-BR-3; read-out: SK-BR3 TGI): 0.00172 µM | GI50 (SK-MEL-28; read-out: MEL-28 GI50): 0.000742 µM | CC50 (SK-MEL-28; read-out: MEL-28 LC50): 0.0112 µM | IC (TGI) (SK-MEL-28; read-out: MEL-28 TGI): 0.00306 µM | GI50 (SK-OV-3; Homo sapiens, SK-OV-3, 48 h, read-out: SK-OV3 GI50): 0.00131 µM | SK-OV3 TGI (SK-OV-3; SK-OV3, SRB, 48 hours exposure): 1.30E−08 Molar

C=CCN1[C@@H]2c3c(cc(C)c(OC)c3OCOCCOC)C[C@H]1[C@H](C#N)N1C2CC2(O)C(=O)C(C)=C3OCOC3=C2[C@@H]1COC(=O)[C@H](CSCC1c2ccccc2-c2ccccc21)NC(=O)OC(C)(C)C (stereo partly drawn) [compound 10]
GI50 (A-549; read-out: GI50 A549): 1010 µM | CC50 (A-549; read-out: LC50 A549): 1010 µM | IC (TGI) (A-549; read-out: TGI A549): 1010 µM | GI50 (HT-29; read-out: GI50 HT29): 1010 µM | CC50 (HT-29; read-out: LC50 HT29): 1010 µM | IC (TGI) (HT-29; read-out: TGI HT29): 1010 µM | CC50 at 48 h [1]: 7.63 µM | TGI H-MEC-1 (HMEC1): 4.06E−06 Molar | GI50 (HMEC1; read-out: GI50 H-MEC-1): 2.15 µM

C=CCN1[C@@H]2c3c(cc(C)c(OC)c3O)C[C@H]1[C@H](C#N)N1C2[C@@H]2SCC(=O)C(=O)OC[C@H]1c1c3c(c(C)c(OC(C)=O)c12)OCO3 (stereo partly drawn) [compound 13]
GI50 (A-549; read-out: GI50 A549): 3.94 µM | CC50 (A-549; read-out: LC50 A549): 13.7 µM | IC (TGI) (A-549; read-out: TGI A549): 7.36 µM | GI50 (HT-29; read-out: GI50 HT29): 6.02 µM | CC50 (HT-29; read-out: LC50 HT29): 15.4 µM | IC (TGI) (HT-29; read-out: TGI HT29): 15.4 µM | CC50 at 48 h [1]: 15.4 µM | TGI H-MEC-1 (HMEC1): 1.54E−05 Molar | GI50 (HMEC1; read-out: GI50 H-MEC-1): 4.74 µM

C=CCN1[C@@H]2c3c(cc(C)c(OC)c3O)C[C@H]1[C@H](C#N)N1C2[C@@H]2SC[C@]3(NCCc4cc(O)c(OC)cc43)C(=O)OC[C@H]1c1c3c(c(C)c(OC(C)=O)c12)OCO3 (stereo partly drawn) [compound 14]
GI50 (A-549; read-out: GI50 A549): 2.23 µM | CC50 (A-549; read-out: LC50 A549): 11.7 µM | IC (TGI) (A-549; read-out: TGI A549): 5.11 µM | GI50 (HT-29; read-out: GI50 HT29): 1.77 µM | CC50 (HT-29; read-out: LC50 HT29): 12.5 µM | IC (TGI) (HT-29; read-out: TGI HT29): 6.39 µM | CC50 at 48 h [1]: 12.5 µM | TGI H-MEC-1 (HMEC1): 1.25E−05 Molar | GI50 (HMEC1; read-out: GI50 H-MEC-1): 3 µM

COc1cc2c(cc1O)CCN[C@]21CS[C@@H]2c3c(OC(C)=O)c(C)c4c(c3[C@H](COC1=O)N1C2C2N[C@@H](Cc3cc(C)c(OC)c(O)c32)[C@@H]1C#N)OCO4 (stereo partly drawn) [compound 15]
GI50 (A-549; read-out: GI50 A549): 0.002 µM | CC50 (A-549; read-out: LC50 A549): 0.176 µM | IC (TGI) (A-549; read-out: TGI A549): 0.00735 µM | GI50 (HT-29; read-out: GI50 HT29): 0.000484 µM | CC50 (HT-29; read-out: LC50 HT29): 3.13 µM | IC (TGI) (HT-29; read-out: TGI HT29): 0.00535 µM | CC50 at 48 h [1]: 4.44 µM | TGI H-MEC-1 (HMEC1): 1.32E−08 Molar | GI50 (HMEC1; read-out: GI50 H-MEC-1): 0.000556 µM

COc1c(C)cc2c(c1O)[C@@H]1C3[C@@H]4SCC(=O)C(=O)NC[C@@H](c5c6c(c(C)c(OC(C)=O)c54)OCO6)N3[C@@H](C#N)[C@H](C2)N1C (stereo partly drawn) [compound 75]
GI50 (A-549; read-out: A549 GI50): 0.889 µM | CC50 (A-549; read-out: A549 LC50): 12.7 µM | IC (TGI) (A-549; read-out: A549 TGI): 4.01 µM | GI50 (HT-29; read-out: HT29 GI50): 0.33 µM | CC50 (HT-29; read-out: HT29 LC50): 16.1 µM | IC (TGI) (HT-29; read-out: HT29 TGI): 0.933 µM | CC50 at 48 h [1]: 16.1 µM | H-MEC-1 TGI (HMEC1): 1.64E−06 Molar | GI50 (HMEC1; read-out: H-MEC-1 GI50): 0.279 µM
